Experimental data published in patent US4980377A, “1-(aminophenyl)-2-aminopropanone derivatives” (Laboratoire L. Lafon, priority 1984, dated 1990).
“Also recorded” adds a separate entry of the source. Where a name gives a salt, the structure may show the parent alone.

Columns and labels:
[1] = system: cellular and humoral immunity; assay: Test for cells forming lysis areas; settings: in vivo
[2] = system: mice; assay: Interaction with barbital; format: in vivo, mouse; settings: gastric
Method: Half an hour after the administration of CRL 41 153, groups of 10 mice receive an intraperitoneal injection of barbital (220 mg/kg).

[3] = Particular toxicity in grouped mice; settings: mouse, ip
Method: (§1) The number of dead animals is noted after 1 hour, 2 hours, 3 hours, 4 hours and 24 hours.

[4] = system: mice; assay: Particular toxicity in grouped mice; settings: mice
Method: as §1

[5] = system: immunity; assay: Immunological study (overall); settings: in vivo; hydrochloride
[6] = pH of solutions in distilled water; format: physicochemical; settings: administered solution in distilled water, concentration not given
Method: The neuropsychopharmacological study was undertaken according to the procedures described above for CRL 41 153, CRL 41 213 being adminstered intraperitoneally, in solution in distilled water, in a volume of 20 ml/kg to male mice and a volume of 5 ml/kg to male rats, and the pH of the injected solution varying with the concentration of CRL 41 213 according to the data given in Table II below.

[7] = system: humans; assay: Clinical study: vasodilator; format: in vivo, human
Description: In the treatment of diseases associated with the blood circulation through the vessels.

[8] = system: rats; assay: Overall behavior and reactivities in rats; format: in vivo, rat; settings: for Observed symptoms: i.p.
Method: (§2) In the neuropsychopharmacological study which follows, a solution of CRL 41 153 in distilled water (pH 1.5) was administered intraperitoneally in a volume of 20 ml/kg to male mice and 5 ml/kg to male rats.
(§3) Groups of three animals are observed before and then 0.25 hour, 0.50 hour, 1 hour, 2 hours, 3 hours and 24 hours after the administration of CRL 41 153.

[9] = system: gravid White New Zealand female rabbits; assay: Teratogenicity in gravid White New Zealand rabbits; format: in vivo, rabbit; settings: day 5 to day 18 of gestation; for Affected foetuses, %: normal limit 1.5%
How it was run: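 Fetuses harvested by cesarean on gestation day 29 were scored for number and for any malformation (limb blockade, anury, tail or skull defects, exencephaly).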

[10] = system: cellular and humoral immunity; assay: Delayed hypersensitivity to the red blood corpuscles of sheep; format: in vivo
[11] = system: mice; assay: Overall behavior and reactivities in mice; format: in vivo, mouse; settings: i.p.
Method: as §2, §3

[12] = system: dogs; assay: Cardiovascular study in anesthetized dogs; format: in vivo, dog
How it was run: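 Nembutal-anaesthetized dogs (~14 kg) given CRL 41 194 (n=2) or CRL 41 221 (n=4) intraduodenally at successive 0.1, 0.5, 1, 2.5, 5 and 10 mg/kg doses. Blood pressure, heart rate, femoral and vertebral flow, rectal temperature measured; skin colour observed, plus bile colour (CRL 41 194).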

[13] = system: man; assay: Clinical study: treatment of depressions; format: in vivo, human
[14] = system: mice; assay: Spontaneous motility; format: in vivo, mouse; settings: gastric
Method: 0.5 hour after they have received CRL 41 153, the mice (6 per dose, 12 control animals) are placed in an actimeter, where their motility is recorded for 30 minutes.

[15] = system: male mice; assay: Acute toxicity by intraperitoneal administration; format: in vivo, mouse; settings: i.p.
Method: as §2

[16] = Acute toxicity by intraperitoneal administration; format: in vivo, mouse; settings: mouse, in vivo, ip; male mice
Method: as §2

[17] = system: rats; assay: Investigation of stereotype movements; format: in vivo, rat; settings: i.p., compared with amphetamine 2 mg/kg, hydrochloride
Method: Immediately after the intraperitoneal administration of CRL 41 194 or amphetamine, groups of 6 rats are placed in Plexiglass boxes (20×10×10 cm). The stereotype movements are graded from 0 to 3 every 10 minutes until they wear off.
Groups of 6 rats receive an intraperitoneal injection of CRL 41 213, distilled water or amphetamine immediately before being placed in small cages, where their stereotype behavior is graded every 10 minutes until the effect wears off.

[18] = system: CNS; assay: Neuropsychopharmacological profile as a whole; format: in vivo, mice and rats; settings: conclusion of the tests
Method: as §2

[19] = system: mice; assay: Interaction with apomorphine in mice; format: in vivo, mouse; settings: gastric, apomorphine 16 mg/kg s.c.
Method: Groups of 6 mice receive CRL 41 153 0.5 hour before the subcutaneous injection of 1 or 16 mg/kg of apomorphine.

[20] = anesthetized dogs, intraduodenal
[21] = dogs, after product, isoprenaline 10 μg/kg
[22] = dogs, after product, norepinephrine 2 μg/kg

## CC(C)NC(C)C(=O)c1cc(Cl)c(N)c(Cl)c1 (centres unmarked) [CRL 41 194, 1-(4-amino-3,5-dichlorophenyl)-2-isopropylaminopropanone hydrochloride]
[1]
  Activity in the test for cells forming lysis areas: active on the cellular and humoral immunity
[2]
  Duration of the sleep induced by barbital: At the strongest dose administered gastrically (32 mg/kg), CRL 41 194 reduces the duration of the sleep induced by barbital in mice
[3]; grouped mice
  LD50: 27 mg/kg
[3]; in vivo
  selectivity ratio: 3.19
[3]; isolated mice
  LD50: 86 mg/kg
[4]
  Particular toxicity to grouped mice: more toxic to grouped mice than to isolated mice
[5]
  Immunological effect (overall): immunostimulant or immunomodulating effects; also recorded: beneficial immunological properties; also recorded: behaves as an immunomodulating agent
[6]
  pH: 4.5
[7]
  Vasodilator in human clinical use: very active as a vasodilator
[8]; dose not stated
  Stereotype movements (summary): stereotype movements (of moderate intensity)
[8]; 0.125 mg/kg
  Observed symptoms: mydriasis for 2 hours (at a maximum 0.5 hour after administration)
[8]; 0.5 mg/kg
  Observed symptoms: dyspnea for 0.5 hour
[8]; 2 mg/kg, hydrochloride
  Observed symptoms: mydriasis at a maximum 0.5 hour after administration; also recorded: dyspnea for 2 hours
[8]; 8 mg/kg, hydrochloride
  Observed symptoms: piloerection for 1 hour; also recorded: mydriasis for 2 hours (at a maximum 0.5 hour after administration); also recorded: dyspnea for 2 hours
[9]; 5 mg/kg daily
  Affected foetuses, number: 1
  Total foetuses (live): 95
  Affected foetuses, %: 1.10%
[9]; 10 mg/kg daily
  Affected foetuses, number: 0
  Total foetuses (live): 91
  Affected foetuses, %: 0%
[10]
  Activity on the delayed hypersensitivity reaction: active on the cellular and humoral immunity
[11]; 0.25 mg/kg
  Observed symptoms: weak excitation 24 hours after administration
[11]; 1 mg/kg
  Observed symptoms: weak excitation 24 hours after administration
[11]; 4 mg/kg
  Observed symptoms: weak excitation and an increase in the reactivity to touch about 24 hours after administration
[11]; 16 mg/kg, hydrochloride
  Observed symptoms: weak excitation 24 hours after administration; also recorded: an increase in the reactivity to touch for 24 hours; also recorded: dyspnea for 3 hours; also recorded: mydriasis for 2 hours (at a maximum 1 hour after administration); also recorded: dilation of the caudal veins for 2 hours
[12]
  Vasodilator (conclusion): good vasodilator
[12]; anesthetized dogs
  Effect on hypertension induced by norepinephrine: slightly reduced
  Effects of isoprenaline on the blood pressure: reduced as regards the blood pressure
  Rectal temperature: the rectal temperature and skin temperature rose
  Skin temperature: the rectal temperature and skin temperature rose
[12]; anesthetized dogs, after accumulated dose of 19.1 mg/kg intraduodenal
  Effects of isoprenaline on the heart rate: not modified as regards the heart rate
[12]; [20]
  Blood pressure: A drop in the diastolic blood pressure is observed at 5 mg/kg
  Differential blood pressure: an increase in the differential blood pressure as from the smallest doses
  Femoral flow: At 0.5 mg/kg, the femoral flow increases
  Heart rate: At 0.5 mg/kg, the femoral flow increases at the same time as the heart rate
  Respiration: Both dogs received respiratory stimulation
  Vertebral flow: increases the vertebral flow as from a dose of 0.1 mg/kg
[12]; [21]
  Diastolic blood pressure after isoprenaline: 64 mm Hg
  Diastolic blood pressure before isoprenaline: 126 mm Hg
  Heart rate after isoprenaline: 262 beats/minute
[12]; [22]
  Systolic blood pressure after norepinephrine: 266 mm Hg
  Systolic blood pressure before norepinephrine: 208 mm Hg
[13]
  Result in the treatment of depressions: excellent results on man in the treatment of depressions at a dose of 3×5 mg per day
[14]
  Spontaneous motor activity: At the strongest dose administered gastrically (32 mg/kg), CRL 41 194 slightly reduces the spontaneous motor activity of mice
[15]
  LD0 (maximum non-lethal dose): greater than 32 mg/kg
[16]
  LD50: 86 mg/kg
[17]
  Stereotype movements: At the strongest dose used (16 mg/kg), CRL 41 194 causes the appearance of stereotype movements; also recorded: The intensity of the effect obtained with 16 mg/kg is slightly lower than that obtained with 2 mg/kg of amphetamine
[18]
  Antidepressant effects (overall): is an antidepressant
[19]
  Effect on hypothermia induced by apomorphine: as from a dose of 2 mg/kg, administered gastrically, CRL 41 194 opposes the hypothermia
  Effect on righting behavior and stereotypies induced by apomorphine: without modifying the righting behavior and the stereotypies
